Like-named read-outs stand apart in the source and are kept apart here. *1 amine or outer side, *2 acyl side, *3 side chain or, on linkers, in order; H or OH if unused. Where a SMILES comes first, the peptide text is derived from it. [ ]: non-standard residue; d: D form. The star is where a group is joined. Pro(trans-4-NH2) = O=C([C@@H]1C[C@@H](N[*:3])CN1[*:1])[*:2]; X2 = CC(=O)NC1C(OCCn2cc(CCC(=O)*)nn2)OC(CO)C(O)C1O; X1 = O=C(CCCn1cc(CN[*:1])nn1)[*:2]
Molecular target: SBA (soybean agglutinin) (Glycine max, UniProt P05046)
Experiment: Surface plasmon resonance (SPR) binding to immobilized SBA
Method: Assay: surface plasmon resonance (SPR) experiments were performed on the Biacore T200 at 25° C. using a functionalized CM5 sensor chip. Protein immobilization was performed according to the instrument build-in wizard template. The CM5 sensor chip was activated with a solution containing N-ethyl-N′-(3-[…])-carbodiimide (EDC) (0.2 M) and N-hydroxysuccinimide (NHS) (0.05 M). HPA (10 μg/mL) in NaOAc buffer (pH 6) or SBA (10 μg/mL) in NaOAc buffer (pH 4) was injected over the activated flow cell at flow rate of 10 μL/min for 420 s. Then 1 M ethanolamine at pH 8.5 was injected to block the remaining activated groups. Binding assays were performed with HBS-P+(10 mM HEPES, 150 mM NaCI, 0.05% tween 20, pH 7.4) for HPA or 10 mM HEPES, 150 mM NaCl, 0.05% tween 20, and 100 μM CaCl2, 0.05% tween 20, pH 7.5 for SBA as running buffer. Protein modulator for test (COM1, SL4, SL5 and SL6) were injected onto the surface, with several concentrations of ranging from 6.25 nM to 100 nM for protein modulator COM1 and 10 nM to 160 nM for protein modulators SL4, SL5 and SL6 to HPA or from 62.5 nM to 1000 nM for protein modulator COM1 and 100 nM to 1600 nM for protein modulators SL4, SL5 and SL6 to SBA at the rate of 30 μL/min diluted in the running buffer. The surface was regenerated by 30 s injection of 300 mM GlcNAc for HPA or 100 mM methyl β-D-galactopyranoside for LecA. The sensorgrams were reference subtracted, quality controlled and analyzed by Biacore T200 Evaluation Software, and the kinetic parameters were obtained by fitting curves to 1:1 Langmuir model.

Sequence of SBA (soybean agglutinin) (P05046 33-285): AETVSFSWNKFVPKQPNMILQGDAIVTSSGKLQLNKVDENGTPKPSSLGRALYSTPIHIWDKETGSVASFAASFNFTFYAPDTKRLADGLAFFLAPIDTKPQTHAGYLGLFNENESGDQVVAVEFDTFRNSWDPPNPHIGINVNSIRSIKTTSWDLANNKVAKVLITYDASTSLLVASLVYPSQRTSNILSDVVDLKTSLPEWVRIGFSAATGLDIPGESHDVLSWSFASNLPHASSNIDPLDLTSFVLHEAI

| Structure (SMILES) | Kd | Kd (SPR, Biacore T200, 25° C., SBA immobilized on CM5 chip, HEPES buffer with 100 μM CaCl2 pH 7.5, 1:1 Langmuir model, read-out: KD(nM) SBA) |
| --- | --- | --- |
| CC(=O)NC1C(OCCn2cc(CCC(=O)N[C@@H]3C[C@H]4C(=O)N5CCC[C@H]5C(=O)N5CCC[C@H]5C(=O)N5C[C@H](NC(=O)CCc6cn(CCOC7OC(CO)C(O)C(O)C7NC(C)=O)nn6)C[C@H]5C(=O)N5CCC[C@H]5C(=O)N5CCC[C@H]5C(=O)N5C[C@H](NC(=O)CCc6cn(CCOC7OC(CO)C(O)C(O)C7NC(C)=O)nn6)C[C@H]5C(=O)N5CCC[C@H]5C(=O)N5CCC[C@H]5C(=O)NCc5cn(nn5)CCCC(=O)N5CCC[C@H]5C(=O)N5CCC[C@H]5C(=O)N5CCC[C@H]5C(=O)N5CCC[C@H]5C(=O)N5CCC[C@H]5C(=O)N5CCC[C@H]5C(=O)N5CCC[C@H]5C(=O)N5CCC[C@H]5C(=O)N5CCC[C@H]5C(=O)NCc5cn(nn5)CCCC(=O)N5CCC[C@H]5C(=O)N5CCC[C@H]5C(=O)N5CCC[C@H]5C(=O)N5CCC[C@H]5C(=O)N5CCC[C@H]5C(=O)N5CCC[C@H]5C(=O)N5CCC[C@H]5C(=O)N5CCC[C@H]5C(=O)N5CCC[C@H]5C(=O)NCc5cn(nn5)CCCC(=O)N4C3)nn2)OC(CO)C(O)C1O (stereo partly drawn) [SL6] (cyclo(PPPPPPPPP[X1]PPPPPPPPP[X1][Pro(trans-4-NH2)](X2)PP[Pro(trans-4-NH2)](X2)PP[Pro(trans-4-NH2)](X2)PP[X1])) | 255 nM | – |
| CC(=O)NC1C(OCCn2cc(CNC(=O)CCOCC(COCCC(=O)NCc3cn(CCOC4OC(CO)C(O)C(O)C4NC(C)=O)nn3)(COCCC(=O)NCc3cn(CCOC4OC(CO)C(O)C(O)C4NC(C)=O)nn3)NC(=O)COCCOCCN)nn2)OC(CO)C(O)C1O (stereo not shown) [COM1, reference compound] | – | 61.2 nM |
| CC(=O)NC1C(OCCn2cc(CCC(=O)N[C@@H]3C[C@H]4C(=O)N5CCC[C@H]5C(=O)N5CCC[C@H]5C(=O)N5CCC[C@H]5C(=O)N5CCC[C@H]5C(=O)N5CCC[C@H]5C(=O)N5CCC[C@H]5C(=O)N5CCC[C@H]5C(=O)N5CCC[C@H]5C(=O)NCc5cn(nn5)CCCC(=O)N5C[C@H](NC(=O)CCc6cn(CCOC7OC(CO)C(O)C(O)C7NC(C)=O)nn6)C[C@H]5C(=O)N5CCC[C@H]5C(=O)N5CCC[C@H]5C(=O)N5CCC[C@H]5C(=O)N5CCC[C@H]5C(=O)N5CCC[C@H]5C(=O)N5CCC[C@H]5C(=O)N5CCC[C@H]5C(=O)N5CCC[C@H]5C(=O)NCc5cn(nn5)CCCC(=O)N5C[C@H](NC(=O)CCc6cn(CCOC7OC(CO)C(O)C(O)C7NC(C)=O)nn6)C[C@H]5C(=O)N5CCC[C@H]5C(=O)N5CCC[C@H]5C(=O)N5CCC[C@H]5C(=O)N5CCC[C@H]5C(=O)N5CCC[C@H]5C(=O)N5CCC[C@H]5C(=O)N5CCC[C@H]5C(=O)N5CCC[C@H]5C(=O)NCc5cn(nn5)CCCC(=O)N4C3)nn2)OC(CO)C(O)C1O (stereo partly drawn) [SL4] (cyclo(PPPPPPPP[X1][Pro(trans-4-NH2)](X2)PPPPPPPP[X1][Pro(trans-4-NH2)](X2)PPPPPPPP[X1][Pro(trans-4-NH2)](X2))) | 98.1 nM | – |
| CC(=O)NC1C(OCCn2cc(CCC(=O)N[C@@H]3C[C@H]4C(=O)N5CCC[C@H]5C(=O)N5CCC[C@H]5C(=O)N5CCC[C@H]5C(=O)N5CCC[C@H]5C(=O)N5CCC[C@H]5C(=O)N5CCC[C@H]5C(=O)N5CCC[C@H]5C(=O)N5CCC[C@H]5C(=O)NCc5cn(nn5)CCCC(=O)N5CCC[C@H]5C(=O)N5CCC[C@H]5C(=O)N5CCC[C@H]5C(=O)N5CCC[C@H]5C(=O)N5CCC[C@H]5C(=O)N5CCC[C@H]5C(=O)N5CCC[C@H]5C(=O)N5CCC[C@H]5C(=O)N5CCC[C@H]5C(=O)NCc5cn(nn5)CCCC(=O)N5C[C@H](NC(=O)CCc6cn(CCOC7OC(CO)C(O)C(O)C7NC(C)=O)nn6)C[C@H]5C(=O)N5CCC[C@H]5C(=O)N5CCC[C@H]5C(=O)N5CCC[C@H]5C(=O)N5CCC[C@H]5C(=O)N5CCC[C@H]5C(=O)N5C[C@H](NC(=O)CCc6cn(CCOC7OC(CO)C(O)C(O)C7NC(C)=O)nn6)C[C@H]5C(=O)N5CCC[C@H]5C(=O)N5CCC[C@H]5C(=O)NCc5cn(nn5)CCCC(=O)N4C3)nn2)OC(CO)C(O)C1O (stereo partly drawn) [SL5] (cyclo(PPPPPPPPP[X1][Pro(trans-4-NH2)](X2)PPPPP[Pro(trans-4-NH2)](X2)PP[X1][Pro(trans-4-NH2)](X2)PPPPPPPP[X1])) | 138 nM | – |

— US10443026B2, “Polygonal scaffold and manufacturing method thereof, and protein modulator and manufacturing method thereof” (NATIONAL TSING HUA UNIVERSITY, priority 2017, dated 2019)
